Laboratory results taken from PubChem BioAssay AID330 (DTP/NCI, 2004).
Where “and” joins values, the source holds several entries; their conditions need not be identical. Equal values may be shown once. Inconclusive results and toxic doses are left out.

System: P388 leukemia ip, CD2F1 mice, survival T/C
Assay: NCI In Vivo Anticancer Drug Screen. Data for tumor model P388 Leukemia (intraperitoneal) in CD2F1 (CDF1) mice
Conditions: endpoint: median survival time, higher = longer survival
Summary of the method: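 Mice carrying the transplanted tumor received test compound or vehicle. Survival was recorded in each group, and the value is the treated-group measurement divided by that of the vehicle-treated control group.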

[1] = dose: 60.0 mg/kg/injection, schedule: Q01DX005 (ip), vehicle: Klucel (hydroxypropylcellulose) (HPC)
[2] = dose: 120.0 mg/kg/injection, schedule: Q01DX005 (ip), vehicle: Klucel (hydroxypropylcellulose) (HPC)
[3] = dose: 240.0 mg/kg/injection, schedule: Q01DX005 (ip), vehicle: Klucel (hydroxypropylcellulose) (HPC)
[4] = dose: 60.0 mg/kg/injection, schedule: Q01DX005 (ip), vehicle: saline with Tween-80
[5] = dose: 120.0 mg/kg/injection, schedule: Q01DX005 (ip), vehicle: saline with Tween-80
[6] = dose: 50.0 mg/kg/injection, schedule: Q01DX005 (ip), vehicle: Klucel (hydroxypropylcellulose) (HPC)
[7] = dose: 100.0 mg/kg/injection, schedule: Q01DX005 (ip), vehicle: Klucel (hydroxypropylcellulose) (HPC)
[8] = dose: 200.0 mg/kg/injection, schedule: Q01DX005 (ip), vehicle: Klucel (hydroxypropylcellulose) (HPC)
[9] = dose: 240.0 mg/kg/injection, schedule: Q01DX005 (ip), vehicle: saline with Tween-80
[10] = dose: 100.0 mg/kg/injection, schedule: Q04DX002 (ip), vehicle: saline with Tween-80
[11] = dose: 200.0 mg/kg/injection, schedule: Q04DX002 (ip), vehicle: saline with Tween-80
[12] = dose: 50.0 mg/kg/injection, schedule: Q01DX005 (ip), vehicle: saline with Tween-80
[13] = dose: 100.0 mg/kg/injection, schedule: Q01DX005 (ip), vehicle: saline with Tween-80
[14] = dose: 200.0 mg/kg/injection, schedule: Q01DX005 (ip), vehicle: saline with Tween-80
[15] = dose: 25.0 mg/kg/injection, schedule: Q04DX003 (ip), vehicle: saline with Tween-80
[16] = dose: 50.0 mg/kg/injection, schedule: Q04DX003 (ip), vehicle: saline with Tween-80
[17] = dose: 100.0 mg/kg/injection, schedule: Q04DX003 (ip), vehicle: saline with Tween-80
[18] = dose: 200.0 mg/kg/injection, schedule: Q04DX003 (ip), vehicle: saline with Tween-80
[19] = dose: 60.0 mg/kg/injection, schedule: Q01DX005 (ip), vehicle: saline
[20] = dose: 120.0 mg/kg/injection, schedule: Q01DX005 (ip), vehicle: saline

CC(=O)OC1=C2C(C)(C)OC3CC(=O)OCC23C2CCC3(C)C(c4ccoc4)OC(=O)C4OC43C2(C)C1=O (stereo not drawn)
T/C (dose: 0.5 mg/kg/injection, schedule: Q01DX009 (ip), vehicle: saline + alcohol): 113 % of control | T/C (dose: 1.0 mg/kg/injection, schedule: Q01DX009 (ip), vehicle: saline + alcohol): 110 % of control | T/C (dose: 2.0 mg/kg/injection, schedule: Q01DX009 (ip), vehicle: saline + alcohol): 107 % of control | T/C (dose: 4.0 mg/kg/injection, schedule: Q01DX009 (ip), vehicle: saline + alcohol): 101 % of control

Cc1c(C(N)=O)c(-c2ccccc2)c(-c2ccccc2)n1Nc1ccccc1
T/C [1]: 95 % of control | T/C [2]: 96 % of control | T/C [3]: 92 % of control

CC(=O)C(=Cc1ccc(C=C(C(C)=O)C(C)=O)cc1)C(C)=O
T/C [4]: 114 % of control | T/C [5]: 111 % of control

O=C1CC2(C(=O)NN1)C1=C(c3ccccc3CC1)N1CCCC12 (stereo not drawn)
T/C (dose: 11.25 mg/kg/injection, schedule: Q01DX009 (ip), vehicle: Klucel (hydroxypropylcellulose) (HPC)): 100 % of control | T/C (dose: 22.5 mg/kg/injection, schedule: Q01DX009 (ip), vehicle: Klucel (hydroxypropylcellulose) (HPC)): 102 % of control | T/C (dose: 45.0 mg/kg/injection, schedule: Q01DX009 (ip), vehicle: Klucel (hydroxypropylcellulose) (HPC)): 100 % of control | T/C (dose: 90.0 mg/kg/injection, schedule: Q01DX009 (ip), vehicle: Klucel (hydroxypropylcellulose) (HPC)): 100 % of control

Cc1ccc2c(ccc(/C=C\c3cc(C)c4cccnc4c3O)[n+]2C)c1
T/C (dose: 0.78 mg/kg/injection, schedule: Q01DX009 (ip), vehicle: saline with Tween-80): 124 % of control | T/C (dose: 1.56 mg/kg/injection, schedule: Q01DX009 (ip), vehicle: saline with Tween-80): 122 % of control | T/C (dose: 3.13 mg/kg/injection, schedule: Q01DX009 (ip), vehicle: saline with Tween-80): 121 % of control

COc1ccn(C2OC(COC(=O)c3ccccc3)C(OC(=O)c3ccccc3)C2OC(=O)c2ccccc2)c(=O)n1 (stereo not drawn)
T/C (dose: 25.0 mg/kg/injection, schedule: Q01DX005 (ip), vehicle: Klucel (hydroxypropylcellulose) (HPC)): 97 % of control | T/C [6]: 88 % of control and 93 % of control | T/C [7]: 90 % of control | T/C [8]: 92 % of control

O=C(Nc1ccc(F)cc1)N1CCCCC1
T/C [4]: 91 % of control | T/C [5]: 99 % of control | T/C [9]: 97 % of control

CC(=O)OCc1cnccc1Cl
T/C [10]: 100 % of control | T/C [11]: 102 % of control | T/C (dose: 400.0 mg/kg/injection, schedule: Q04DX002 (ip), vehicle: saline with Tween-80): 94 % of control

O=c1oc2c(cc1Cl)CCCC2
T/C [6]: 96 % of control | T/C [7]: 101 % of control | T/C [8]: 103 % of control

CCOC(=O)c1ccc(NC(CCNC2CCCCC2)=NC(C)(C)C)cc1
T/C (dose: 50.0 mg/kg/injection, schedule: Q01DX009 (ip), vehicle: saline with Tween-80): 96 % of control | T/C (dose: 100.0 mg/kg/injection, schedule: Q01DX009 (ip), vehicle: saline with Tween-80): 97 % of control | T/C (dose: 200.0 mg/kg/injection, schedule: Q01DX009 (ip), vehicle: saline with Tween-80): 96 % of control

CCC1(c2ccccn2)OCC(CBr)O1 (stereo not drawn)
T/C [12]: 93 % of control | T/C [13]: 100 % of control | T/C [14]: 93 % of control

CC(C)CCNc1ncnc2[nH]ncc12
T/C [15]: 95 % of control | T/C [16]: 95 % of control | T/C [17]: 100 % of control

COc1cccc2c1C(=O)c1c(O)c3c(c(O)c1C2=O)CC(O)(/C(C)=N/NC(=O)CCCCCCCCC(=O)N/N=C(\C)C1(O)Cc2c(O)c4c(c(O)c2C(OC2CC(N)C(O)C(C)O2)C1)C(=O)c1c(OC)cccc1C4=O)CC3OC1CC(N)C(O)C(C)O1 (stereo not drawn)
T/C (dose: 3.13 mg/kg/injection, schedule: Q01DX009 (ip), vehicle: water): 155 % of control | T/C (dose: 6.25 mg/kg/injection, schedule: Q01DX009 (ip), vehicle: water): 174 % of control | T/C (dose: 12.5 mg/kg/injection, schedule: Q01DX009 (ip), vehicle: water): 221 % of control | T/C (dose: 25.0 mg/kg/injection, schedule: Q01DX009 (ip), vehicle: water): 99 % of control

C=C1CCOC1=O
T/C (dose: 50.0 mg/kg/injection, schedule: Q04DX002 (ip), vehicle: saline with Tween-80): 97 % of control | T/C [10]: 105 % of control | T/C [11]: 105 % of control

CC(NC(=O)OC(C)(C)C)C(=O)NC(C)C(=O)NC(C)C(=O)OCc1ccccc1 (stereo not drawn)
T/C [12]: 99 % of control | T/C [13]: 99 % of control | T/C [14]: 101 % of control

COc1cc(C#N)cc(OC)c1
T/C [15]: 109 % of control | T/C [16]: 100 % of control | T/C [17]: 100 % of control | T/C [18]: 100 % of control

COC(=O)N1C(C#N)=CCc2ccccc21
T/C [4]: 94 % of control | T/C [5]: 108 % of control | T/C [9]: 97 % of control

CCN(CC)CCSc1cc(C)c2ccc(N)nc2n1
T/C [1]: 100 % of control | T/C [2]: 106 % of control

COc1cccc2c1C(=N)c1c(O)c3c(c(O)c1C2=O)CC(O)(C(C)=O)CC3OC1CC(N(Cc2ccccc2)Cc2ccccc2)C(O)C(C)O1 (stereo not drawn)
T/C (dose: 4.69 mg/kg/injection, schedule: Q04DX003 (ip), vehicle: distilled water + Tween-80): 101 % of control | T/C (dose: 9.38 mg/kg/injection, schedule: Q04DX003 (ip), vehicle: distilled water + Tween-80): 102 % of control | T/C (dose: 18.75 mg/kg/injection, schedule: Q04DX003 (ip), vehicle: distilled water + Tween-80): 100 % of control | T/C (dose: 37.5 mg/kg/injection, schedule: Q04DX003 (ip), vehicle: distilled water + Tween-80): 96 % of control | T/C (dose: 75.0 mg/kg/injection, schedule: Q04DX003 (ip), vehicle: distilled water + Tween-80): 101 % of control | T/C (dose: 150.0 mg/kg/injection, schedule: Q04DX003 (ip), vehicle: distilled water + Tween-80): 108 % of control

O=C(OCC(O)CO)c1c(Cl)c(Cl)c(Cl)c(Cl)c1-c1c2cc(I)c(=O)c(I)c-2oc2c(I)c(O)c(I)cc12 (stereo not drawn)
T/C [19]: 94 % of control | T/C [20]: 100 % of control | T/C (dose: 240.0 mg/kg/injection, schedule: Q01DX005 (ip), vehicle: saline): 102 % of control

Cn1ncc2c(N)c(C#N)c(=O)[nH]c21
T/C (dose: 25.0 mg/kg/injection, schedule: Q01DX001 (ip), vehicle: saline with Tween-80): 102 % of control

CC1(C)CN=C(C2=C(O)c3ccccc3C2=O)C1
T/C [17]: 91 % of control | T/C [18]: 93 % of control | T/C (dose: 400.0 mg/kg/injection, schedule: Q04DX003 (ip), vehicle: saline with Tween-80): 90 % of control

CC(C)OP(=O)(NNP(=O)(OC(C)C)OC(C)C)OC(C)C
T/C (dose: 50.0 mg/kg/injection, schedule: Q01DX009 (ip), vehicle: saline): 104 % of control | T/C (dose: 100.0 mg/kg/injection, schedule: Q01DX009 (ip), vehicle: saline): 105 % of control | T/C (dose: 200.0 mg/kg/injection, schedule: Q01DX009 (ip), vehicle: saline): 114 % of control

O=C1C2=C(/C=C/c3ccccc3)OCCC2=NN1c1ccccc1
T/C [1]: 94 % of control | T/C [2]: 98 % of control | T/C [3]: 109 % of control

CCCSc1nc2ccc(NC(=O)/C=C/C(=O)O)cc2s1
T/C (dose: 50.0 mg/kg/injection, schedule: Q01DX009 (ip), vehicle: Klucel (hydroxypropylcellulose) (HPC)): 107 % of control | T/C (dose: 100.0 mg/kg/injection, schedule: Q01DX009 (ip), vehicle: Klucel (hydroxypropylcellulose) (HPC)): 96 % of control | T/C (dose: 200.0 mg/kg/injection, schedule: Q01DX009 (ip), vehicle: Klucel (hydroxypropylcellulose) (HPC)): 103 % of control

COc1ccc2c(c1OC)OCC(CN(C)C)C2=O (stereo not drawn)
T/C (dose: 15.0 mg/kg/injection, schedule: Q01DX005 (ip), vehicle: saline): 100 % of control and 102 % of control | T/C (dose: 30.0 mg/kg/injection, schedule: Q01DX005 (ip), vehicle: saline): 108 % of control and 111 % of control | T/C [19]: 106 % of control and 110 % of control and 114 % of control | T/C [20]: 114 % of control and 116 % of control
